{"source": "patent US10011610B2", "about": "“Selective BACE1 inhibitors” (Eli Lilly and Company, priority 2015, dated 2018)", "key": {"human BACE1(1-460):Fc": {"biological_target": "T1, human BACE1(1-460):Fc (Homo sapiens, UniProt P56817)", "T1 construct": "made in house; host or cells: HEK293 (transient transfection, purified from conditioned media by Protein A)", "T1 sequence (P56817 22-460)": "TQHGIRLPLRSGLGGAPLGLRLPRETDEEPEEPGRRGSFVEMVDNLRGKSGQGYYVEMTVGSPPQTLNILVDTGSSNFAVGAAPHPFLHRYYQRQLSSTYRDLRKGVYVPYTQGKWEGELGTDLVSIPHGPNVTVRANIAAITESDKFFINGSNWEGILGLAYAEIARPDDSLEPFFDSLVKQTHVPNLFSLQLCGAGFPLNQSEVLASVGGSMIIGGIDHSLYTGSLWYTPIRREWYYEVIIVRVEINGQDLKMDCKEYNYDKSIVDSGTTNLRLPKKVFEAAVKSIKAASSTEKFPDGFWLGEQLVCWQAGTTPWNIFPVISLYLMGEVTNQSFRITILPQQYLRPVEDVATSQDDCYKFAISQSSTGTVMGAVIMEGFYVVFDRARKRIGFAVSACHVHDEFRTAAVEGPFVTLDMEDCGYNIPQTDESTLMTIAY", "assay": "BACE1 FRET Assay", "type": "biochemical", "conditions": "purified recombinant huBACE1:Fc, mean±standard deviation of the mean, n=4", "method": "(§1) To assess selectivity of BACE1 over BACE2, the test compound is evaluated in FRET and immunoassay detection base enzymatic assays using specific substrates for BACE1 and BACE2 as described below. For in vitro enzymatic and cellular assays, the test compound is prepared in DMSO to make up a 10 mM stock solution. The stock solution is serially diluted in DMSO to obtain a ten-point dilution curve with final compound concentrations ranging from 10 μM to 0.05 nM in a 96-well round-bottom plate before conducting the in vitro enzymatic and whole cell assays.\n(§2) Human BACE1 (accession number: AF190725) and human BACE2 (accession number: AF 204944) are cloned from total brain cDNA by RT-PCR. The nucleotide sequences corresponding to amino acid sequences #1 to 460 are inserted into the cDNA encoding human IgG1 (Fc) polypeptide (Vassar et al., Science, 286, 735-742 (1999)). […]\n(§3) Conditioned media of HEK293 cells transiently transfected with huBACE1:Fc or huBACE2:Fc cDNA are collected. […] The purity of final product is assessed by electrophoresis in 4-20% Tris-Glycine SDS-PAGE. […]\nSerial dilutions of the test compound are prepared as described above. […] The RFU of the mixture at time 0 is recorded at excitation wavelength 355 nm and emission wavelength 460 nm, after brief mixing on a plate shaker. […] The RFU at the end of incubation is recorded with the same excitation and emission settings used at time 0. […]"}, "human BACE2 (1-460):Fc": {"biological_target": "T2, human BACE2 (1-460):Fc (Homo sapiens, UniProt Q9Y5Z0)", "T2 construct": "made in house; host or cells: HEK293 (transient transfection, purified from conditioned media by Protein A)", "T2 sequence (Q9Y5Z0 21-460)": "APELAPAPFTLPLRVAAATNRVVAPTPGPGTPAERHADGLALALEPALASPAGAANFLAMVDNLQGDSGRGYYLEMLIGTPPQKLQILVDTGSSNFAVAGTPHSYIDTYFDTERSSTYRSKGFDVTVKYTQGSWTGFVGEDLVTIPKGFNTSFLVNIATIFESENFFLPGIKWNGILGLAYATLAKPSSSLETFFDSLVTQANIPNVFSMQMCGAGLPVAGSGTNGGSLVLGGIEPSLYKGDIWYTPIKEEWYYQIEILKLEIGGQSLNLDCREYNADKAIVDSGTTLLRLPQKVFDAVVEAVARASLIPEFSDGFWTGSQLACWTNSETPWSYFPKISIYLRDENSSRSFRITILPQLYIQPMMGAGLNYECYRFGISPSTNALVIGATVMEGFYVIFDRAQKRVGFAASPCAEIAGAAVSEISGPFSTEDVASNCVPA", "assay": "BACE2 MBP-C125Swe Assay", "type": "biochemical", "method": "as §1\nas §2, with “(1999)). This fusion protein of BACE1(1-460) or BACE2(1-460) and human Fc, named huBACE1:Fc and huBACE2:Fc respectively, are constructed in the pJB02 vector.” for “(1999)).”\nas §3\n10 point serial dilutions of test compounds are prepared in the appropriate range. […] The amount of product is measured by ELISA using MBP-C26swe standard. […]"}, "[1]": {"tested_on": "BACE1 activity in SH-SY5YAPP695Wt cells", "assay": "SH-SY5YAPP695Wt Whole Cell Assay (Abeta 1-40 and 1-42 ELISA)", "type": "cell-based", "conditions": "Homo sapiens, 24 hours incubation, mean±standard deviation of the mean, n=4", "method": "as §1\nThe routine whole cell assay for the measurement of inhibition of BACE1 activity utilizes the human neuroblastoma cell line SH-SY5Y (ATCC Accession No. CRL2266) stably expressing a human APP695Wt cDNA. Cells are routinely used up to passage number 6 and then discarded.\nSH-SY5YAPP695Wt cells are plated in 96 well tissue culture plates at 5.0×10^4 cells/well in 200 μL culture media (50% MEM/EBSS and Ham's F12, lx each sodium pyruvate, non-essential amino acids and NaHCO3 containing 10% FBS). […]\nAt the end of the incubation, conditioned media are analyzed for evidence of beta-secretase activity by analysis of Abeta peptides 1-40 and 1-42 by specific sandwich ELISAs. […]"}, "[2]": {"tested_on": "Abeta 1-x peptide levels in brain", "assay": "In Vivo Inhibition of Beta-Secretase (brain Abeta 1-x in PDAPP mice)", "conditions": "p<0.01; for reduction of Abeta 1-x peptide levels in brain hippocampus: young female PDAPP mice; for reduction of Abeta 1-x levels in brain cortical tissue: PDAPP mice, compared to vehicle-treated mice three hours after dosing", "excerpt": "Several animal models, including mouse, guinea pig, dog, and monkey, may be used to screen for inhibition of beta-secretase activity in vivo following compound treatment. Animals used in this invention can be wild type, transgenic, or gene knockout animals. For example, the PDAPP mouse model, prepared as described in Games et al., Nature 373, 523-527 (1995), and other non-transgenic or gene knockout animals are useful to analyze in vivo inhibition of Abeta and sAPPbeta production in the presence of inhibitory compounds. Generally, 2 month old PDAPP mice, gene knockout mice or non-transgenic animals are administered compound formulated in vehicles, such as corn oil, beta-cyclodextran, phosphate buffers, PHARMASOLVE®, or other suitable vehicles via oral, subcutaneous, intra-venous, feeding, or other route of administration. 1 to 24 hours following the administration of compound, animals are sacrificed, and brains are removed for analysis of Abeta 1-x. “Abeta 1-x” as used herein refers to the sum of Abeta species that begin with residue 1 and end with a C-terminus greater than residue 28. This detects the majority of Abeta species and is often called “total Abeta”. Total Abeta peptides (Abeta 1-x) levels are measured by a sandwich ELISA, using monoclonal 266 as a capture antibody and biotinylated 3D6 as reporting antibody. (See May, et al., Journal of Neuroscience, 31, 16507-16516 (2011)).\nFor acute studies, compound or appropriate vehicle is administered and animals are sacrificed at about 3 hours after dosing. Brain tissue, is obtained from selected animals and analyzed for the presence of Abeta 1-x. After chronic dosing brain tissues of older APP transgenic animals may also be analyzed for the amount of beta-amyloid plaques following compound treatment.\nFor example, a 0.1, 0.3, and 1 mg/kg oral dose of Example 1, to young female PDAPP mice reduced Abeta 1-x peptide levels in brain hippocampus by 32%, 40%, and 55% (all values p<0.01), respectively."}}, "note": "Read-outs that look alike come from different tables or passages of the source.", "data": [{"smiles": "CC(F)(F)[C@H]1OC[C@]2(c3cc(NC(=O)c4ccc(C#N)cn4)ccc3F)N=C(N)SC[C@H]12", "note": "[Example 1, N-[3-[(4aS,5S,7aS)-2-Amino-5-(1,1-difluoroethyl)-4,4a,5,7-tetrahydrofuro[3,4-d][1,3]thiazin-7a-yl]-4-fluoro-phenyl]-5-cyano-pyridine-2-carboxamide]", "values": [{"measurement": "IC50", "setting": "human BACE1(1-460):Fc", "value": 0.509, "unit": "nM"}, {"measurement": "IC50", "setting": "human BACE2 (1-460):Fc; MBP-C125Swe substrate, ELISA detection, mean±standard deviation of the mean, n=6", "value": 17.6, "unit": "nM"}, {"measurement": "ratio of BACE1 (FRET IC50 enzyme assay) to BACE2 (MBP-C125Swe cell assay)", "setting": "human BACE2 (1-460):Fc; selectivity for BACE1 over BACE2", "value": "approximately 35 fold"}, {"measurement": "IC50", "setting": "[1]; read-out: IC50 for SH-SY5YAPP695Wt A-beta (1-40) ELISA", "value": 0.157, "unit": "nM"}, {"measurement": "IC50", "setting": "[1]; read-out: IC50 for SH-SY5YAPP695Wt A-beta (1-42) ELISA", "value": 0.177, "unit": "nM"}, {"measurement": "reduction of Abeta 1-x peptide levels in brain hippocampus", "setting": "[2]; 0.1 mg/kg oral dose", "value": 32, "unit": "%"}, {"measurement": "reduction of Abeta 1-x levels in brain cortical tissue", "setting": "[2]; 0.1 mg/kg", "value": 38, "unit": "%"}, {"measurement": "reduction of Abeta 1-x peptide levels in brain hippocampus", "setting": "[2]; 0.3 mg/kg oral dose", "value": 40, "unit": "%"}, {"measurement": "reduction of Abeta 1-x levels in brain cortical tissue", "setting": "[2]; 0.3 mg/kg", "value": 50, "unit": "%"}, {"measurement": "reduction of Abeta 1-x peptide levels in brain hippocampus", "setting": "[2]; 1 mg/kg oral dose", "value": 55, "unit": "%"}, {"measurement": "reduction of Abeta 1-x levels in brain cortical tissue", "setting": "[2]; 1 mg/kg", "value": 67, "unit": "%"}]}]}
